Assay results published in patent US12281122B1, “PI3K inhibitors” (Cogent Biosciences, Inc., priority 2023, dated 2025).
pIC50: −log10 of the molar value.

Experiments:
[1] = tested on: T47D (PI3Kα-H1047R) cell line; test: HTRF phospho-AKT(S473) cell assay in T47D cells; type: cell-based, human; details: Homo sapiens; HTRF phospho-AKT(S473), T47D (PI3Kα-H1047R) cells, 2 hours compound incubation
Summary of the method: (§1)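 T47D: RPMI + 10% FBS + 0.2 units/mL insulin, top 5 μM. SKBR3: McCoy's 5A + 10% FBS, top 10 μM, 70 ng/ml PDGF-BB last 15 min. Both: 12-pt 1:3, 2 h, 37° C, max 0.5% DMSO; HTRF pAKT(S473); IC50.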

[2] = tested on: SKBR3 (PI3Kα-Wild Type) cell line; test: HTRF phospho-AKT(S473) cell assay in SKBR3 cells; type: cell-based, human; details: Homo sapiens, SK-BR-3; HTRF phospho-AKT(S473), SKBR3 (PI3Kα-Wild Type) cells, 2 hours compound incubation, PDGF-BB stimulated
Summary of the method: as §1

## Cc1cc([C@@H](C)Nc2ccc(Cl)nc2C(=O)NS(C)(=O)=O)c2nc(N3C[C@@H]4C[C@H]3CN4c3cnc(C)nc3)n(C)c(=O)c2c1 [Compound 576, 6-chloro-3-(((R)-1-(3,6-dimethyl-2-((1S,4S)-5-(2-methylpyrimidin-5-yl)-2,5-diazabicyclo[2.2.1]heptan-2-yl)-4-oxo-3,4-dihydroquinazolin-8-yl)ethyl)amino)-N-(methylsulfonyl) picolinamide]
[1]
  pIC50: 6.00 to 6.30
[2]
  pIC50: ≤ 5.30

## Cc1cc([C@@H](C)Nc2ccc(Cl)nc2C(=O)NS(C)(=O)=O)c2nc(N3C[C@H]4C[C@@H]3CN4c3cnc(C)cn3)n(C)c(=O)c2c1 [Compound 577, 6-chloro-3-(((R)-1-(3,6-dimethyl-2-((1R,4R)-5-(5-methylpyrazin-2-yl)-2,5-diazabicyclo[2.2.1]heptan-2-yl)-4-oxo-3,4-dihydroquinazolin-8-yl)ethyl)amino)-N-(methylsulfonyl) picolinamide]
[1]
  pIC50: 6.30 to 6.60
[2]
  pIC50: ≤ 5.30

## Cc1cc([C@@H](C)Nc2ccc(Cl)nc2C(=O)NS(C)(=O)=O)c2nc(N3C[C@@H]4[C@H](C3)[C@H]4c3cnc(C)nc3C)n(C)c(=O)c2c1 [Compound 578, 6-chloro-3-(((R)-1-(2-((1R,5S,6S)-6-(2,4-dimethylpyrimidin-5-yl)-3-azabicyclo[3.1.0]hexan-3-yl)-3,6-dimethyl-4-oxo-3,4-dihydroquinazolin-8-yl)ethyl)amino)-N-(methylsulfonyl) picolinamide]
[1]
  pIC50: > 6.60
[2]
  pIC50: 5.30 to 6.00

## Cc1cc([C@@H](C)Nc2ccc(Cl)nc2C(=O)NS(C)(=O)=O)c2nc(N3C[C@@H]4C[C@H]3CN4c3ncc(C#N)cc3F)n(C)c(=O)c2c1 [Compound 579, 6-chloro-3-(((R)-1-(2-((1S,4S)-5-(5-cyano-3-fluoropyridin-2-yl)-2,5-diazabicyclo [2.2.1]heptan-2-yl)-3,6-dimethyl-4-oxo-3,4-dihydroquinazolin-8-yl)ethyl)amino)-N-(methylsulfonyl) picolinamide]
[1]
  pIC50: 6.30 to 6.60
[2]
  pIC50: ≤ 5.30

## Cc1cc([C@@H](C)Nc2ccc(Cl)nc2C(=O)NS(C)(=O)=O)c2nc(N3C[C@@H]4C[C@H]3CN4c3ccc(C#N)cn3)n(C)c(=O)c2c1 [Compound 580, 6-chloro-3-(((R)-1-(2-((1S,4S)-5-(5-cyanopyridin-2-yl)-2,5diazabicyclo [2.2.1]heptan-2-yl)-3,6-dimethyl-4-oxo-3,4-dihydroquinazolin-8-yl)ethyl)amino)-N-(methylsulfonyl) picolinamide]
[1]
  pIC50: 6.30 to 6.60
[2]
  pIC50: ≤ 5.30

## COc1nccc(N2C[C@@H]3C[C@H]2CN3c2nc3c([C@@H](C)Nc4ccc(Cl)nc4C(=O)NS(C)(=O)=O)cc(C)cc3c(=O)n2C)n1 [Compound 581, 6-chloro-3-(((R)-1-(2-((1S,4S)-5-(2-methoxypyrimidin-4-yl)-2,5-diazabicyclo [2.2.1]heptan-2-yl)-3,6-dimethyl-4-oxo-3,4-dihydroquinazolin-8-yl)ethyl)amino)-N-(methylsulfonyl) picolinamide]
[1]
  pIC50: 6.30 to 6.60
[2]
  pIC50: ≤ 5.30

## COc1nccc(N2C[C@H]3C[C@@H]2CN3c2nc3c([C@@H](C)Nc4ccc(Cl)nc4C(=O)NS(C)(=O)=O)cc(C)cc3c(=O)n2C)n1 [Compound 582, 6-chloro-3-(((R)-1-(2-((1R,4R)-5-(2-methoxypyrimidin-4-yl)-2,5-diazabicyclo [2.2.1]heptan-2-yl)-3,6-dimethyl-4-oxo-3,4-dihydroquinazolin-8-yl)ethyl)amino)-N-(methylsulfonyl) picolinamide]
[1]
  pIC50: 6.30 to 6.60
[2]
  pIC50: ≤ 5.30

## Cc1cc([C@@H](C)Nc2ccc(Cl)nc2C(=O)NS(C)(=O)=O)c2nc(N3C[C@@H]4[C@H](C3)[C@H]4n3cc(Cl)cn3)n(C)c(=O)c2c1 [Compound 583, 6-chloro-3-(((R)-1-(2-((1R,5S,6S)-6-(4-chloro-1H-pyrazol-1-yl)-3-azabicyclo[3.1.0]hexan-3-yl)-3,6-dimethyl-4-oxo-3,4-dihydroquinazolin-8-yl)ethyl)amino)-N-(methylsulfonyl) picolinamide]
[1]
  pIC50: 6.30 to 6.60
[2]
  pIC50: ≤ 5.30

## CCn1c(N2C[C@@H]3[C@H](C2)[C@H]3c2cnc(C)nc2)nc2c([C@@H](C)Nc3ccc(Cl)nc3C(=O)NS(C)(=O)=O)cc(C)cc2c1=O [Compound 584, 6-chloro-3-(((R)-1-(3-ethyl-6-methyl-2-((1R,5S,6S)-6-(2-methylpyrimidin-5-yl)-3-azabicyclo[3.1.0]hexan-3-yl)-4-oxo-3,4-dihydroquinazolin-8-yl)ethyl)amino)-N-(methylsulfonyl) picolinamide]
[1]
  pIC50: > 6.60
[2]
  pIC50: 5.30 to 6.00

## Cc1cc([C@@H](C)Nc2ccc(Cl)nc2C(=O)NS(C)(=O)=O)c2nc(N3CCN(c4ccnc(C(F)(F)F)n4)CC3)n(C)c(=O)c2c1 [Compound 589, (R)-6-chloro-3-((1-(3,6-dimethyl-4-oxo-2-(4-(2-(trifluoromethyl)pyrimidin-4-yl)piperazin-1-yl)-3,4-dihydroquinazolin-8-yl)ethyl)amino)-N-(methylsulfonyl) picolinamide]
[1]
  pIC50: 6.30 to 6.60
[2]
  pIC50: ≤ 5.30

## Cc1cc([C@@H](C)Nc2ccc(Cl)nc2C(=O)NS(C)(=O)=O)c2nc(N3CCN(c4ccnc(C5CC5)n4)CC3)n(C)c(=O)c2c1 [Compound 590, (R)-6-chloro-3-((1-(2-(4-(2-cyclopropylpyrimidin-4-yl)piperazin-1-yl)-3,6-dimethyl-4-oxo-3,4-dihydroquinazolin-8-yl)ethyl)amino)-N-(methylsulfonyl) picolinamide]
[1]
  pIC50: > 6.60
[2]
  pIC50: 5.30 to 6.00

## Cc1cc([C@@H](C)Nc2ccc(Cl)nc2C(=O)NS(C)(=O)=O)c2nc(N3C[C@@H]4C[C@H]3CN4c3cnc(C)cn3)n(C)c(=O)c2c1 [Compound 591, 6-chloro-3-(((R)-1-(3,6-dimethyl-2-((1S,4S)-5-(5-methylpyrazin-2-yl)-2,5diazabicyclo [2.2.1]heptan-2-yl)-4-oxo-3,4-dihydroquinazolin-8-yl)ethyl)amino)-N-(methylsulfonyl) picolinamide]
[1]
  pIC50: 6.30 to 6.60
[2]
  pIC50: ≤ 5.30

## Cc1cc([C@@H](C)Nc2ccc(Cl)nc2C(=O)NS(C)(=O)=O)c2nc(N3C[C@H]4C[C@@H]3CN4c3cnc(C)nc3)n(C)c(=O)c2c1 [Compound 592, 6-chloro-3-(((R)-1-(3,6-dimethyl-2-((1R,4R)-5-(2-methylpyrimidin-5-yl)-2,5-diazabicyclo [2.2.1]heptan-2-yl)-4-oxo-3,4-dihydroquinazolin-8-yl)ethyl)amino)-N-(methylsulfonyl) picolinamide]
[1]
  pIC50: 6.00 to 6.30
[2]
  pIC50: ≤ 5.30

## Cc1cc([C@@H](C)Nc2ccc(Cl)nc2C(=O)NS(C)(=O)=O)c2nc(N3C[C@@H]4[C@H](C3)[C@H]4c3n[nH]cc3Cl)n(C)c(=O)c2c1 [Compound 593, 6-chloro-3-(((R)-1-(2-((1R,5S,6R)-6-(4-chloro-1H-pyrazol-3-yl)-3-azabicyclo[3.1.0]hexan-3-yl)-3,6-dimethyl-4-oxo-3,4-dihydroquinazolin-8-yl)ethyl)amino)-N-(methylsulfonyl) picolinamide]
[1]
  pIC50: 6.30 to 6.60
[2]
  pIC50: ≤ 5.30

## Cc1cc([C@@H](C)Nc2ccc(Cl)nc2C(=O)NS(C)(=O)=O)c2nc(N3C[C@@H]4[C@H](C3)[C@H]4c3n[nH]c(C)c3F)n(C)c(=O)c2c1 [Compound 594, 6-chloro-3-(((R)-1-(2-((1R,5S,6R)-6-(4-fluoro-5-methyl-1H-pyrazol-3-yl)-3-azabicyclo[3.1.0]hexan-3-yl)-3,6-dimethyl-4-oxo-3,4-dihydroquinazolin-8-yl)ethyl)amino)-N-(methylsulfonyl) picolinamide]
[1]
  pIC50: > 6.60
[2]
  pIC50: 5.30 to 6.00

## Cc1cc([C@@H](C)Nc2ccc(Cl)nc2C(=O)NS(C)(=O)=O)c2nc(N3CCC(c4nc(C)no4)CC3)n(C)c(=O)c2c1 [Compound 595, (R)-6-chloro-3-((1-(3,6-dimethyl-2-(4-(3-methyl-1,2,4-oxadiazol-5-yl)piperidin-1-yl)-4-oxo-3,4-dihydroquinazolin-8-yl)ethyl)amino)-N-(methylsulfonyl) picolinamide]
[1]
  pIC50: > 6.60
[2]
  pIC50: 5.30 to 6.00

## COc1cccc(N2CCN(c3nc4c([C@@H](C)Nc5ccc(Cl)nc5C(=O)NS(C)(=O)=O)cc(C)cc4c(=O)n3C)CC2)n1 [Compound 596, (R)-6-chloro-3-((1-(2-(4-(6-methoxypyridin-2-yl)piperazin-1-yl)-3,6-dimethyl-4-oxo-3,4-dihydroquinazolin-8-yl)ethyl)amino)-N-(methylsulfonyl) picolinamide]
[1]
  pIC50: 6.30 to 6.60
[2]
  pIC50: ≤ 5.30

## Cc1cc([C@@H](C)Nc2ccc(Cl)nc2C(=O)NS(C)(=O)=O)c2nc(N3C[C@H]4C[C@@H]3CN4c3ccc(N)cn3)n(C)c(=O)c2c1 [Compound 597, 3-(((R)-1-(2-((1R,4R)-5-(5-aminopyridin-2-yl)-2,5-diazabicyclo [2.2.1]heptan-2-yl)-3,6-dimethyl-4-oxo-3,4-dihydroquinazolin-8-yl)ethyl)amino)-6-chloro-N-(methylsulfonyl) picolinamide]
[1]
  pIC50: 5.30 to 6.00
[2]
  pIC50: ≤ 5.30

## Cc1cc([C@@H](C)Nc2ccc(Cl)nc2C(=O)NS(C)(=O)=O)c2nc(N3C[C@@H]4[C@H](C3)[C@H]4c3nnc(C)s3)n(C)c(=O)c2c1 [Compound 598, 6-chloro-3-(((R)-1-(3,6-dimethyl-2-((1R,5S,6R)-6-(5-methyl-1,3,4-thiadiazol-2-yl)-3-azabicyclo[3.1.0]hexan-3-yl)-4-oxo-3,4-dihydroquinazolin-8-yl)ethyl)amino)-N-(methylsulfonyl) picolinamide]
[1]
  pIC50: > 6.60
[2]
  pIC50: 5.30 to 6.00
